Data as given in the NIST ThermoML archive (doi:10.1016/j.tca.2012.12.008).

Assay: xn = mol fraction of the nth substance listed
Details: 101 kPa, Liquid; for viscosity: Capillary tube (Ostwald / Ubbelohde) method; for mass density: Vibrating tube method

CCCC(C)O (stereo not drawn) [pentan-2-ol] + CCC(C)=O
Details	mass density, 298.15 K [kg/m3]	mass density, 303.15 K [kg/m3]	mass density, 308.15 K [kg/m3]	mass density, 313.15 K [kg/m3]	viscosity, 298.15 K [mPa·s]	viscosity, 303.15 K [mPa·s]	viscosity, 308.15 K [mPa·s]	viscosity, 313.15 K [mPa·s]
x2 = 0	805.41	801.21	796.64	792.51	3.478	2.801	2.335	1.993
x2 = 0.0852	804.2	799.84	795.37	791.21	2.516	2.204	1.894	1.662
x2 = 0.1643	803.1	798.76	794.25	790.05	2.008	1.786	1.581	1.429
x2 = 0.2456	802.1	797.76	793.2	788.94	1.592	1.439	1.316	1.217
x2 = 0.3511	801	796.62	791.97	787.7	1.183	1.103	1.038	0.992
x2 = 0.4422	800.24	795.77	791.11	786.83	0.92	0.891	0.86	0.832
x2 = 0.5632	799.6	794.94	790.27	785.94	0.702	0.693	0.683	0.673
x2 = 0.6508	799.3	794.56	789.87	785.47	0.62	0.608	0.595	0.583
x2 = 0.7416	799.14	794.34	789.63	785.18	0.569	0.548	0.528	0.507
x2 = 0.8512	799.2	794.26	789.56	785.05	0.48	0.463	0.445	0.427
x2 = 0.941	799.31	794.39	789.76	785.17	0.428	0.407	0.385	0.364
